This note sets out measurements from a melting point compilation (Tetko et al.; mined from patent text by program, amines drawn as free bases though some values may be those of a salt).

The term melting point denotes the temperature of the solid-liquid transition.

Molecule `NCC(=O)N(Nc1nncc(-c2ccccc2)n1)C(=O)OCc1ccccc1` came in with a melting point of 166 to 167 °C.

As for `N#CC(C=CC=O)=C(c1ccc(F)cc1)c1ccc(F)cc1`, the melting point lay within 155 to 156 °C.

As to `CCOC(=O)CN1C(=O)[C@@H](N)CCc2ccccc21`, the melting point is 106 to 108 °C.

Molecule `CCCCCCCCCCCCCCCCN(CC(O)CO)C(C)=O` (configuration not stated) registered a melting point of 56 to 58 °C.

Turning to `CC(C)n1nc(CO)cc1OCc1ccc2ccccc2n1`, the melting point was in the range of 118 to 119 °C.

The molecule `COc1ccc2[nH]c(C(C)C)c(C=C3SC(=S)N(CC(=O)O)C3=O)c2c1` gave a melting point of 255 to 260 °C.

Take `CCOC(=O)c1c(Cl)nc2ccc(OC)cc2c1CCl`: the melting point was 215 to 219 °C.

`O=C1c2ccccc2C(=O)N1C(Cc1ccccc1)CP(=O)(O)O` (configuration not stated) displayed a melting point of 127 to 130 °C.

For the molecule `CC(CC(F)(F)CC(C)(C)O)C1CCC2C3CC=C4CC(O)CCC4(C)C3CCC12C` (configuration not stated), the melting point fell in the range of 148 to 149 °C.

`C#CCN(C(=O)C(Cl)Cl)C(C)C` registered a melting point of 58 to 59 °C.

As to `COc1ccc(C)cc1-c1cc2ccccc2[nH]1`, the melting point stood at 119 °C.

As for `O=C(OCc1ccccc1)C(CC(=O)N1Cc2cscc2C1)Cc1ccccc1` (configuration not stated), the melting point was 122 to 124 °C.

`CS(=O)(=O)c1ccc(N2CC(O)(C(F)(F)F)N=C2c2ccc3c(c2)OCO3)cc1` (configuration not stated) showed a melting point of 200 to 202 °C.

In turn, `c1ccc(Nc2ccc(Cc3ccc(Nc4ccccc4)c4ccccc34)c3ccccc23)cc1` had a melting point of 154 to 157 °C.

For the molecule `CCOC(=O)c1ccc(-c2ccc(OCCCNC)c(-c3ccc4c(c3)C(C)(C)CCC4(C)C)c2)cc1`, the melting point stood at 141 °C.

Molecule `Cc1ccc(O)c(Cn2c(NCCCN3CCOCC3)nc3ccc(Cc4c(C)cc(NCCO)cc4C)cc32)n1` registered a melting point of 162 °C.

In the case of `CSc1cc(C)nc(SC)c1[N+](=O)[O-]`, the melting point was 172 to 176 °C.

In the case of `O=C1CCC(=O)C1C(=O)CCc1ccc(Cl)c(Cl)c1`, the melting point fell in the range of 126 to 127 °C.

`CCCN1NCc2c(C3C(=O)Nc4ccc(Cl)cc43)ncnc21` (configuration not stated) displayed a melting point of 293 to 297 °C.

`COC(=O)[C@@H]1CCCN1C(=O)c1cccc(O)c1[N+](=O)[O-]`: the melting point fell in the range of 114 to 116 °C.

As to `CNC1=NS(=O)(=O)N=C1NCCSCc1cnc(CN(C)C)s1`, the melting point is 170 to 172 °C.

On to `CC1Nc2ccc(S(=O)(=O)N(C)C)cc2S(=O)(=O)N1` (configuration not stated), for which the melting point was 210 to 212 °C.

Turning to `CCCCc1ccc(CCc2cc3c(s2)-n2c(C)nnc2CN=C3c2ccccc2Cl)cc1`, the melting point is 119 to 121 °C.

`Cc1ccc2nccc(Cl)c2c1`: the melting point was 47 to 51 °C.

In turn, `Cc1cc2c(=O)n3cc(C#N)ccc3nc2s1` gave a melting point of 256 to 258 °C.

`COc1ccc2c(CCC3CCN(Cc4ccccc4)CC3)noc2c1` registered a melting point of 90.5 to 91.5 °C.

Consider `O=C(O)c1cc(F)c(F)cc1NC1CC1`, for which the melting point lay in the range of 175 to 176 °C.

Molecule `NC1([C@@H]2CCN(c3ccc4c(=O)c(C(=O)O)cn([C@@H]5C[C@@H]5F)c4c3Cl)C2)CC1` had a melting point of 128 to 130 °C.

The molecule `O=C(Sc1ccccn1)c1c(F)c(F)c(F)c(F)c1F` yielded a melting point of 51 °C.

`N#Cc1ccc(C(=O)Nc2ccc(-n3nc(C(F)(F)F)cc3C(F)(F)F)cc2)cc1` had a melting point of 169 to 171 °C.

Turning to `Cn1nc(-c2cc(C(=O)O)c(Cl)cc2F)c(Cl)c1C(F)(F)F`, the melting point is 179 to 181 °C.

The molecule `Nc1nc(N2CCC2)c2ncn(C3CC(F)C(CO)O3)c2n1` (configuration not stated) yielded a melting point of 127 to 129 °C.

As for `Oc1nnc2ccc3ccccc3n12`, the melting point was determined as 134 °C.

Molecule `CC(C)(C)c1cc(CC=Cc2ccccc2)c(O)c(C(C)(C)C)c1` displayed a melting point of 89 °C.

The molecule `COc1c(C(C)(C)C)cc(P(c2cc(C(C)(C)C)c(OC)c(C(C)(C)C)c2)c2ccccc2P2c3ccccc3CC2C(C)C)cc1C(C)(C)C` (single isomer, unassigned; (+)) showed a melting point of 69 to 70 °C.

`Cn1cc(-c2cncc(OC3SCC(O)C(O)C3O)c2)c(C(F)(F)F)n1` (configuration not stated) came in with a melting point of 210 °C.

Regarding `CC(C)N(CCC1(c2ccccn2)CCC(=O)NC1=O)C(C)C` (configuration not stated), the melting point is 101 to 102 °C.

With `COc1ccc(CS(=O)(=O)/C(=C/c2ccc(Br)cc2)C(=O)c2ccc(Br)cc2)cc1`, the melting point was 146 to 150 °C.

Consider `CCn1c(=O)c2nc(C=NO)cn2c2ccccc21`, for which the melting point was 286 to 288 °C.

Turning to `CC(=O)NCC1CN(c2ccc(N3CCC(O)(C(F)(F)F)C(C)C3)c(F)c2)C(=O)O1` (configuration not stated), the melting point is 144 to 146 °C.

`Cc1nc(-n2cnn(CCNc3ccc(F)cc3)c2=O)sc1C(=O)NCc1cccnc1`: the melting point was 163 to 164 °C.

As for `O=C1CC(c2ccccc2)=Nc2ccccc2N1Cc1ccccc1`, the melting point was in the range of 122 to 123 °C.

Regarding `FC(F)c1nc2ccccc2n1-c1nc(Nc2ccccc2)nc(N2CCOCC2)n1`, the melting point is 171 to 174 °C.

`COC(=O)C1=CC(C)(C#N)N(c2cccc(Cl)c2Cl)N1` (configuration not stated) had a melting point of 66 to 67 °C.

Consider `CCCN(Cc1ccc(-c2ccccc2-c2nnn[nH]2)cc1)c1nn(C)cc1C(=O)O`, for which the melting point is 101 to 105 °C.

`COC(=O)N[C@@H](CSc1ccccc1)[C@H](O)CCl` had a melting point of 113 to 114 °C.

The molecule `Cn1nc(-c2cccnc2)nc1-c1cccnc1` returned a melting point of 148 to 149 °C.

Take `Oc1cccc2c1c1cccc(Cl)c1n2Cc1ccc(F)cc1`: the melting point lay in the range of 142 to 145 °C.

On to `COC(=O)C(CO)NS(=O)(=O)c1ccc(Oc2ccncc2)cc1` (configuration not stated), for which the melting point was 137 to 139 °C.

In turn, `O=C(O)C1=Cc2cc(C(O)C(F)(F)F)ccc2OC1C(F)(F)F` (configuration not stated) had a melting point of 114 to 120 °C.

Molecule `COc1cc2c(-c3cc4cc(Cl)cnc4[nH]3)cn(C)c2cc1OC` displayed a melting point of 282 °C.

In the case of `O=C(Oc1ccc2c(c1Cl)Sc1ccccc1N2)c1ccccc1`, the melting point was determined as 203 °C.

Take `CC(C)NC(=O)C1=C(C(=O)Nc2cc(OC3CCCC3)c(Cl)cc2F)CCCC1`: the melting point lay in the range of 169 to 171 °C.

On to `COc1c(C)c(C)c(OC)c(Cc2ccccc2)c1C`, for which the melting point is 53 to 54 °C.

In turn, `CC1=NC(NC(=O)Nc2cccc(C)c2)C(=O)N(CC(=O)N(C)c2ccccn2)c2c(C)cccc21` (configuration not stated) came in with a melting point of 222 to 224 °C.

Molecule `Nc1ccc(OCCCOc2ccc(N)cc2[N+](=O)[O-])c([N+](=O)[O-])c1` had a melting point of 152 to 153 °C.

In the case of `CNC(=C[N+](=O)[O-])NCCSCc1csc(CN2CCCCC2)c1`, the melting point is 101 to 103 °C.

On to `COc1ccccc1N1CCN(S(=O)(=O)c2ccc(/C=C/C(=O)NO)cc2)CC1`, for which the melting point is 225 to 226 °C.

Molecule `CC1=C(C)C(=O)C(NCc2ccccc2)=CC1=O` had a melting point of 101 to 102 °C.

Consider `Cn1c(Sc2ccc(C(=O)O)c(Cl)c2)n[nH]c1=O`, for which the melting point came out at 236 °C.

`O=C(NCC(=O)N1CCN(C(=O)c2cc(C(F)(F)F)cc(C(F)(F)F)c2)[C@H](Cc2c[nH]c3ccccc23)C1)c1ccccc1` gave a melting point of 123 to 135 °C.

In turn, `O=C(O)[C@@H]1O[C@@H]1c1ccccc1` yielded a melting point of 81.5 to 83 °C.

Molecule `CN1C(=O)CN(c2cccc(Cl)c2)NC1=O` returned a melting point of 178 to 180 °C.

In the case of `Cc1ccc(-c2nccc3c(CC(=O)O)cccc23)cc1`, the melting point fell in the range of 223 to 224 °C.

`CCOC(=O)C1=Cc2cc(-c3ccc(C)cc3)ccc2OC1C` (configuration not stated) yielded a melting point of 82 to 84 °C.

For the molecule `CN1OCC(C(O)c2cc(C(C)(C)C)c(O)c(C(C)(C)C)c2)C1=O` (configuration not stated), the melting point was in the range of 137 to 140 °C.

Consider `O=C(c1ccc(C(F)(F)F)cc1)c1ccc(O)cn1`, for which the melting point is over 260 °C.

Consider `Oc1ccc(Br)c2c1CCCC2`, for which the melting point lay in the range of 83 to 85 °C.

In turn, `O=C(/C=C/C=C(c1ccc(F)cc1)c1ccc(F)cc1)Oc1ccc([N+](=O)[O-])cc1` came in with a melting point of 112 to 114 °C.

Molecule `N=C(NCc1ccccc1)NN=Cc1ccc(Cl)cc1Cl` displayed a melting point of 139 to 141 °C.

In the case of `CC(CCCC(C)(C)C)C1CCC2C3C(=O)C=C4CC(O)CCC4(C)C3CCC12C` (configuration not stated), the melting point lay within 176 to 178 °C.

In turn, `CCc1nnc(-c2ccc(OC)cc2)n1-c1ccc(N(C)C)cc1` registered a melting point of 136 °C.

In turn, `O=C(O)Cc1c(C(=O)c2ccc3c(c2)OCCO3)[nH]c2ccc(C(F)(F)F)cc12` gave a melting point of over 250 °C.

Consider `O=S(=O)(NCCc1ccc(C(O)CCCO)cc1)c1ccc(Br)cc1` (configuration not stated), for which the melting point lay in the range of 107 to 108 °C.

In turn, `CS(=O)(=O)c1ccc(Nc2nccc(N3CCCc4c(O)cccc43)n2)cc1` showed a melting point of 242 to 245 °C.

`O=S(=O)(NCCO)c1cccc(-c2cc(-c3nc(-c4ccc(C(F)(F)F)cc4)cc(C(F)(F)F)n3)ccn2)c1` had a melting point of 192 °C.

On to `CCN(CCO)CC(C)N1c2ccccc2Sc2ccc(C(=S)NCc3ccccc3)cc21` (racemic), for which the melting point was 154 °C.

Take `Cc1c(C=O)cc(-c2ccc(S(C)(=O)=O)cc2)n1-c1ccc(F)cc1`: the melting point was 136 to 138 °C.

Turning to `O=Cc1ccc(OC2CCN(C(=O)OCC3c4ccccc4-c4ccccc43)CC2)cc1`, the melting point fell in the range of 106 to 108 °C.

The molecule `CN1CC(CNC(=N)NC(=O)c2ccccc2)CC2c3cccc4[nH]cc(c34)CC21` (configuration not stated) registered a melting point of 190 to 191 °C.

Turning to `O=C(O)C1CCc2c(c3ccccc3n2C(=O)c2ccc(F)cc2)C1` (configuration not stated), the melting point lay in the range of 180 to 182 °C.

`CCCCc1ccc2c(n1)C(C(N)=S)CCC2` (configuration not stated) registered a melting point of 54 to 56 °C.

On to `O=C1c2ccccc2C(=O)c2c1c(Oc1ccc(CCCO)cc1)c1ccc(Sc3ccccc3)cc1c2Oc1ccc(CCCO)cc1`, for which the melting point was 140 to 148 °C.

Molecule `Cc1[nH]c(-c2nc3ccc(C(=O)c4ccccc4)cc3[nH]2)c(C)c1C(=O)O` showed a melting point of over 300 °C.

Regarding `COC(=O)c1c(Cl)ccc(C(=O)O)c1Cl`, the melting point lay in the range of 183 to 185 °C.

For `CC(=O)c1cc(-c2ccc(C)cc2)c(OCc2ccccc2)c(C(C)(C)C)c1`, the melting point worked out at 104 °C.

The molecule `COc1c(-c2ccc(O)c(O)c2)oc2cc(O)c(CC=C(C)CCC=C(C)C)c(O)c2c1=O` yielded a melting point of 98 to 99 °C.
